Results: PubChem BioAssay (NCI)
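These data come from cells grown in 96-well plates and exposed to compound for 48 hours at five concentrations. At the GI50, growth is halved. TGI marks complete inhibition of growth.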

What was measured:
Test in all cases: NCI-60 cell line screen, 48 h
SF-295 CNS = tested on: SF-295 CNS
CCRF-CEM leukemia = tested on: CCRF-CEM leukemia
MDA-MB-231 breast = tested on: MDA-MB-231 breast
SK-MEL-28 melanoma = tested on: SK-MEL-28 melanoma
RXF 393 renal = tested on: RXF 393 renal
TK-10 renal = tested on: TK-10 renal
UACC-62 melanoma = tested on: UACC-62 melanoma
A498 renal = tested on: A498 renal
SN12C renal = tested on: SN12C renal
HCT-116 colon = tested on: HCT-116 colon
HT29 colon = tested on: HT29 colon
SF-268 CNS = tested on: SF-268 CNS
MDA-MB-435 = tested on: MDA-MB-435
OVCAR-4 ovarian = tested on: OVCAR-4 ovarian
LOX IMVI melanoma = tested on: LOX IMVI melanoma
OVCAR-5 ovarian = tested on: OVCAR-5 ovarian
SK-MEL-5 melanoma = tested on: SK-MEL-5 melanoma
NCI-H23 lung = tested on: NCI-H23 lung
NCI-H522 lung = tested on: NCI-H522 lung
ACHN renal = tested on: ACHN renal
M14 melanoma = tested on: M14 melanoma
OVCAR-8 ovarian = tested on: OVCAR-8 ovarian
SW-620 colon = tested on: SW-620 colon
HS 578T breast = tested on: HS 578T breast
OVCAR-3 ovarian = tested on: OVCAR-3 ovarian
RPMI-8226 leukemia = tested on: RPMI-8226 leukemia
HCT-15 colon = tested on: HCT-15 colon
U251 CNS = tested on: U251 CNS
CAKI-1 renal = tested on: CAKI-1 renal
NCI-H460 lung = tested on: NCI-H460 lung
786-0 renal = tested on: 786-0 renal
SK-OV-3 ovarian = tested on: SK-OV-3 ovarian
PC-3 prostate = tested on: PC-3 prostate
BT-549 breast = tested on: BT-549 breast
A549 NSCLC = tested on: A549 NSCLC
NCI-H226 lung = tested on: NCI-H226 lung
UACC-257 melanoma = tested on: UACC-257 melanoma
SK-MEL-2 melanoma = tested on: SK-MEL-2 melanoma
HCC-2998 colon = tested on: HCC-2998 colon
MOLT-4 leukemia = tested on: MOLT-4 leukemia
SR leukemia = tested on: SR leukemia
SNB-75 CNS = tested on: SNB-75 CNS
DU-145 prostate = tested on: DU-145 prostate
UO-31 renal = tested on: UO-31 renal
SNB-19 CNS = tested on: SNB-19 CNS
KM12 colon = tested on: KM12 colon
MALME-3M melanoma = tested on: MALME-3M melanoma
COLO 205 colon = tested on: COLO 205 colon
IGROV1 ovarian = tested on: IGROV1 ovarian
K-562 leukemia = tested on: K-562 leukemia
NCI/ADR-RES ovarian = tested on: NCI/ADR-RES ovarian
T-47D breast = tested on: T-47D breast
EKVX NSCLC = tested on: EKVX NSCLC
HOP-92 NSCLC = tested on: HOP-92 NSCLC
HL-60(TB) leukemia = tested on: HL-60(TB) leukemia
MCF7 breast = tested on: MCF7 breast
SF-539 CNS = tested on: SF-539 CNS

Cc1cc(-c2nc(-c3ccc(OC(F)(F)F)cc3)no2)nn1Cc1ccnc(N2CCN(C3CC3)CC2)c1
GI50 (SF-295 CNS): < 0.01 µM | TGI (SF-295 CNS): > 100 µM | GI50 (CCRF-CEM leukemia): 7.09 µM | TGI (CCRF-CEM leukemia): > 100 µM | GI50 (MDA-MB-231 breast): 12.6 µM | TGI (MDA-MB-231 breast): > 78.7 µM | GI50 (SK-MEL-28 melanoma): 3.6 µM | TGI (SK-MEL-28 melanoma): > 40.2 µM | GI50 (RXF 393 renal): > 27.9 µM | TGI (RXF 393 renal): > 75.6 µM | GI50 (TK-10 renal): 11.2 µM | TGI (TK-10 renal): > 100 µM | GI50 (UACC-62 melanoma): 4.23 µM | TGI (UACC-62 melanoma): > 49.1 µM | GI50 (A498 renal): 0.482 µM | TGI (A498 renal): > 100 µM | GI50 (SN12C renal): > 34.1 µM | TGI (SN12C renal): > 100 µM | GI50 (HCT-116 colon): < 0.01 µM | TGI (HCT-116 colon): > 100 µM | GI50 (HT29 colon): 5.26 µM | TGI (HT29 colon): > 56.9 µM | GI50 (SF-268 CNS): > 42.7 µM | TGI (SF-268 CNS): > 100 µM | GI50 (MDA-MB-435): 2.34 µM | TGI (MDA-MB-435): > 59 µM | GI50 (OVCAR-4 ovarian): < 0.01 µM | TGI (OVCAR-4 ovarian): > 100 µM | GI50 (LOX IMVI melanoma): 0.272 µM | TGI (LOX IMVI melanoma): > 45.6 µM | GI50 (OVCAR-5 ovarian): > 37.5 µM | TGI (OVCAR-5 ovarian): > 100 µM | GI50 (SK-MEL-5 melanoma): < 0.01 µM | TGI (SK-MEL-5 melanoma): 2.45 µM | GI50 (NCI-H23 lung): < 0.01 µM | TGI (NCI-H23 lung): > 86.3 µM | GI50 (NCI-H522 lung): 2.68 µM | TGI (NCI-H522 lung): 58.1 µM | GI50 (ACHN renal): 3.1 µM | TGI (ACHN renal): > 100 µM | GI50 (M14 melanoma): 2.69 µM | TGI (M14 melanoma): 20.4 µM | GI50 (OVCAR-8 ovarian): > 44.4 µM | TGI (OVCAR-8 ovarian): > 100 µM | GI50 (SW-620 colon): > 34.5 µM | TGI (SW-620 colon): > 68.7 µM | GI50 (HS 578T breast): > 38.4 µM | TGI (HS 578T breast): > 72.6 µM | GI50 (OVCAR-3 ovarian): 10.3 µM | TGI (OVCAR-3 ovarian): > 100 µM | GI50 (RPMI-8226 leukemia): 0.582 µM | TGI (RPMI-8226 leukemia): > 58.3 µM | GI50 (HCT-15 colon): 3.84 µM | TGI (HCT-15 colon): > 62 µM | GI50 (U251 CNS): 5.52 µM | TGI (U251 CNS): > 100 µM | GI50 (CAKI-1 renal): 6.3 µM | TGI (CAKI-1 renal): > 100 µM | GI50 (NCI-H460 lung): 4.94 µM | TGI (NCI-H460 lung): 55.3 µM | GI50 (786-0 renal): 13.5 µM | TGI (786-0 renal): > 100 µM | GI50 (SK-OV-3 ovarian): > 49.6 µM | TGI (SK-OV-3 ovarian): > 100 µM | GI50 (PC-3 prostate): 3.38 µM | TGI (PC-3 prostate): > 100 µM | TGI (BT-549 breast): > 52.6 µM | GI50 (A549 NSCLC): 2.55 µM | TGI (A549 NSCLC): > 100 µM | GI50 (NCI-H226 lung): 12.2 µM | TGI (NCI-H226 lung): > 100 µM | GI50 (UACC-257 melanoma): 2.84 µM | TGI (UACC-257 melanoma): > 55.4 µM | GI50 (SK-MEL-2 melanoma): > 42.1 µM | TGI (SK-MEL-2 melanoma): > 100 µM | GI50 (HCC-2998 colon): 7.05 µM | TGI (HCC-2998 colon): 24.5 µM | GI50 (MOLT-4 leukemia): 3.73 µM | TGI (MOLT-4 leukemia): 84.8 µM | TGI (SR leukemia): > 74 µM | GI50 (SNB-75 CNS): > 59.6 µM | TGI (SNB-75 CNS): > 100 µM | GI50 (DU-145 prostate): > 59.4 µM | TGI (DU-145 prostate): > 100 µM | GI50 (UO-31 renal): 4.4 µM | TGI (UO-31 renal): > 100 µM | GI50 (SNB-19 CNS): > 23.1 µM | TGI (SNB-19 CNS): > 100 µM | GI50 (KM12 colon): 6.88 µM | TGI (KM12 colon): > 91.9 µM | GI50 (MALME-3M melanoma): 4.77 µM | TGI (MALME-3M melanoma): > 55.6 µM | GI50 (COLO 205 colon): 3.27 µM | TGI (COLO 205 colon): 25.7 µM | GI50 (IGROV1 ovarian): > 50 µM | TGI (IGROV1 ovarian): > 100 µM | GI50 (K-562 leukemia): < 0.01 µM | TGI (K-562 leukemia): > 100 µM | GI50 (NCI/ADR-RES ovarian): 0.726 µM | TGI (NCI/ADR-RES ovarian): > 100 µM | GI50 (T-47D breast): 1.03 µM | TGI (T-47D breast): > 100 µM | GI50 (EKVX NSCLC): < 0.01 µM | TGI (EKVX NSCLC): > 51.6 µM | GI50 (HOP-92 NSCLC): 1.55 µM | TGI (HOP-92 NSCLC): 81.4 µM | GI50 (HL-60(TB) leukemia): 2.93 µM | TGI (HL-60(TB) leukemia): > 69.2 µM | TGI (MCF7 breast): > 42.7 µM | GI50 (SF-539 CNS): > 33 µM | TGI (SF-539 CNS): > 63.8 µM
